# In patent US20260287509A1, “METHOD FOR MEASURING CELLULAR MECHANICS IN AN IN VITRO FIBROSIS MODEL” (National Cheng Kung University, priority 2023, published 2026):
# Legend:
# NRK-49F cells [1] = assay: Atomic force microscope measurement of stiffness and morphology of NRK-49F cells and collagen fibers in the in vitro fibrosis model (coaxial AFM/confocal system); format: cell-based, rat
# Experimental: (§1) To clearly distinguish the cells from surrounding proteins, the method employs multiple fluorescent proteins for labeling. In this embodiment, rat renal fibroblasts (NRK-49F cells) were transfected to express Lifeact-RFP and cultured on collagen gels conjugated with FITC-labeled type-I collagen. The cultures were divided into a group treated with TGF-β1 and a control group without TGF-β1. TGF-β1 was added to mimic the activation of fibroblasts into myofibroblasts in fibrotic conditions such as kidney fibrosis and keloid, enabling subsequent analysis of cell contraction and collagen fiber interactions.
# (§2) In this embodiment, the coaxial microscope system combines a laser-scanning confocal microscope (FV3000, Olympus) with sharp tip probe-equipped atomic-force microscope (BioScope Resolve, Bruker) […]. Before measurement, the spring constant, deflection sensitivity, and position of the probe were calibrated using No-Touch mode in AFM and vision in confocal microscopy.
# Additionally, prior to measurement, a hydrophobic material is coated onto the sharp tip probe of the atomic force microscope. This prevents the probe from adhering to collagen fibers during scanning of the sample, thereby maintaining measurement accuracy.
# After calibration, the regions of interest can be selected, captured, and measured using the coaxial microscope system. The elastic moduli are calculated from force-distance curves using a modified Sneddon model implemented in Bruker data-analysis software. Collagen fibers and cells are further analyzed for morphology and rigidity using NanoScope Analysis software (v1.9, Bruker).
# FIG. 2 schematically illustrates a simplified experimental workflow for selecting the regions of interest and examining the sample using a coaxial microscope system of the laser scanning confocal microscope and the atomic force microscope. FITC-labeled collagen gels are prepared and seeded with Lifeact-RFP-transfected NRK-49F cells. After 24 hours of culture, drugs are added and media are refreshed. The prepared sample is mounted on the coaxial microscope system, the scan area is marked, and the sample is adjusted to the pre-marked area. Subsequently, images are acquired using the coaxial confocal microscope and atomic force microscope. Finally, the fluorescence and morphological images are merged, and the mechanical properties of the cells and collagen fibers are analyzed using software
# NRK-49F cells [2] = assay: Confocal fluorescence imaging of FITC-labeled collagen fibers in NRK-49F cultures (FITC content); format: cell-based, rat; details: after TGF-β1 stimulation vs control; FIG. 3 and FIG. 4 (FITC content)
# Experimental: as §1, §2
# FIG. 2 schematically illustrates a simplified experimental workflow for selecting the regions of interest and examining the sample using a coaxial microscope system of the laser scanning confocal microscope and the atomic force microscope. […] Finally, the fluorescence and morphological images are merged, and the mechanical properties of the cells and collagen fibers are analyzed using software
# [3] = after TGF-β1 treatment vs control, AFM images, figure not shown
substance,measurement,setting,value
transforming growth factor β1 [TGF-β1],increase in stiffness of collagen fibers,"NRK-49F cells [1]; TGF-β1-treated vs control without TGF-β1, FITC-labeled type-I collagen gel seeded with Lifeact-RFP NRK-49F cells, AFM elastic modulus, FIG. 6",approximately 6.5 fold
same,increase in stiffness of NRK-49F cells,"NRK-49F cells [1]; TGF-β1-treated vs control without TGF-β1, Lifeact-RFP NRK-49F cells on collagen gel, AFM elastic modulus, FIG. 6",~6.7 fold
same,angle between collagen fibers and NRK-49F cells (A),NRK-49F cells [1]; [3],no significant difference
same,diameter of collagen fibers (D1),NRK-49F cells [1]; [3],no significant difference
same,density of collagen fibers,NRK-49F cells [2],markedly increased
